Experimental data taken from patent US20230148184A1, “COMPOUNDS AND METHODS FOR MODULATING SPLICING” (REMIX THERAPEUTICS INC., priority 2020, published 2023).

Experiments:
Format in all cases: cell-based
HTT mRNA = experiment: RT-qPCR splicing assay for HTT mRNA isoforms (canonical junction CJ and alternative junction AJ); conditions: A673 or K562 cell line, 24 hours compound treatment; for IC50: decrease in CJ mRNA; for AC50: increase in AJ mRNA
Outline: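 A673 (DMEM, 10% FBS) or K562 (IMDM, 10% FBS) cells were treated 24 h at 37 °C with an 11-point 3-fold series, top dose 10 uM, DMSO ≤0.25%. In lysates, HTT CJ and AJ isoforms were quantified by one-step RT-qPCR and normalized to PPIA (A673) or GAPDH/GUSB (K562), at least in duplicate.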

Target C CJ mRNA = experiment: Gene panel canonical junction qPCR assay, Target C; conditions: decrease in CJ mRNA levels, RT-qPCR
Outline: (§1)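 A673 or K562 cells treated 24 h at 37 °C with 11-point 3-fold dilutions (top 10 uM final, DMSO ≤0.25%); lysates analysed by one-step RT-qPCR for canonical-junction mRNA. ΔCt vs GAPDH, GUSB or PPIA housekeeper, normalised to DMSO (ΔΔCt), converted to RQ via 2^(−ΔΔCt) and percentage response.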

SMN2 CJ mRNA = experiment: Gene panel canonical junction qPCR assay, SMN2; conditions: decrease in CJ mRNA levels, RT-qPCR
Outline: as §1

HTT CJ mRNA = experiment: Gene panel canonical junction qPCR assay, HTT; conditions: decrease in CJ mRNA levels, RT-qPCR
Outline: as §1

SMILES | IC50 (HTT mRNA) | AC50 (HTT mRNA) | IC50 (Target C CJ mRNA) | IC50 (SMN2 CJ mRNA) | IC50 (HTT CJ mRNA)
Cc1ncc(-c2ccc3c(c2)COc2nc(N(C)[C@@H]4C[C@H]5CC[C@@H](C4)N5)ccc2-3)o1 [Compound 155] | < 100 nM | < 100 nM | 100 to 1000 nM | < 100 nM | < 100 nM
CN(c1ccc2c(c1)CCOc1cc(-n3cccn3)ccc1-2)[C@@H]1C[C@H]2CC[C@@H](C1)N2 [Compound 113] | > 10000 nM | > 10000 nM | > 10000 nM | > 10000 nM | > 10000 nM
CN(c1ccc2c(n1)COc1cc(-n3cccn3)ccc1-2)C1CC(C)(C)NC(C)(C)C1 [Compound 125, N,2,2,6,6-pentamethyl-N-[8-(pyrazol-1-yl)-5H-chromeno[3,4-b]pyridin-3-yl]piperidin-4-amine] | > 10000 nM | > 10000 nM | > 10000 nM | > 10000 nM | > 10000 nM
CN(c1ccc2c(n1)OCc1cc(-n3cccn3)ccc1-2)C1CCNCC1 [Compound 175] | > 10000 nM | 1000 to 10000 nM | > 10000 nM | 1000 to 10000 nM | > 10000 nM
CN(c1ccc2c(n1)OCc1cc(-c3cn[nH]c3)ccc1-2)[C@@H]1C[C@H]2CC[C@@H](C1)N2 [Compound 108, (1R,5S)—N-Methyl-N-[8-(1H-pyrazol-4-yl)-6H-isochromeno[3,4-b]pyridin-3-yl]-8-azabicyclo [3.2.1] octan-3-amine] | < 100 nM | < 100 nM | < 100 nM | < 100 nM | < 100 nM
CN1C[C@@H]2CN(c3ccc4c(n3)OCc3cc(-n5cccn5)ccc3-4)C[C@@H]2C1 [Compound 170] | 1000 to 10000 nM | 1000 to 10000 nM | > 10000 nM | 1000 to 10000 nM | 1000 to 10000 nM
CN(c1ccc2c(n1)OCc1cc(-n3cccn3)ccc1-2)[C@@H]1C[C@H]2CCC[C@@H](C1)N2 [Compound 178] | < 100 nM | < 100 nM | 100 to 1000 nM | < 100 nM | < 100 nM
c1cnn(-c2ccc3c(c2)COc2nc(N4CCCC5(CNC5)C4)ccc2-3)c1 [Compound 181] | > 10000 nM | > 10000 nM | > 10000 nM | > 10000 nM | > 10000 nM
CN(c1ccc2c(n1)OCc1cc(-n3cccn3)ccc1-2)C1CC(C)(C)NC(C)(C)C1 [Compound 148, N,2,2,6,6-pentamethyl-N-[8-(pyrazol-1-yl)-6H-isochromeno[3,4-b]pyridin-3-yl]piperidin-4-amine] | 1000 to 10000 nM | 1000 to 10000 nM | 1000 to 10000 nM | 100 to 1000 nM | 1000 to 10000 nM
c1cnn(-c2ccc3c(c2)OCCc2cc(N[C@@H]4C[C@H]5CC[C@@H](C4)N5)ccc2-3)c1 [Compound 139, (1R,3S,5S)—N-[5-(pyrazol-1-yl)-8-oxatricyclo [9.4.0.0^[2,7]]pentadeca-1(11),2(7),3,5,12,14-hexaen-13-yl]-8-azabicyclo [3.2.1] octan-3-amine] | > 10000 nM | > 10000 nM | > 10000 nM | > 10000 nM | > 10000 nM
COc1cc(-c2ccc3c(c2)COc2nc(N(C)[C@@H]4C[C@H]5CC[C@@H](C4)N5)ccc2-3)ccn1 [Compound 156] | < 100 nM | < 100 nM | 100 to 1000 nM | 100 to 1000 nM | < 100 nM
CC1(C)CC(Nc2ccc3c(n2)OCc2cc(-n4cccn4)ccc2-3)CC(C)(C)N1 [Compound 165] | 100 to 1000 nM | 100 to 1000 nM | 100 to 1000 nM | < 100 nM | 100 to 1000 nM
c1cnn(-c2ccc3c(c2)COc2nc(N4CCC5(CCNC5)CC4)ccc2-3)c1 [Compound 184] | 1000 to 10000 nM | 1000 to 10000 nM | 1000 to 10000 nM | 1000 to 10000 nM | 1000 to 10000 nM
c1cnn(-c2ccc3c(c2)COc2nc(N4CCC5(CC4)CNC5)ccc2-3)c1 [Compound 169] | 100 to 1000 nM | 100 to 1000 nM | 100 to 1000 nM | 100 to 1000 nM | 100 to 1000 nM
CN(c1ccc2c(n1)OCc1cc(-c3ccn(C)c(=O)c3)ccc1-2)[C@@H]1C[C@H]2CC[C@@H](C1)N2 [Compound 153] | < 100 nM | < 100 nM | < 100 nM | < 100 nM | < 100 nM
CN(c1ccc2c(n1)OCc1cc(-n3cccn3)ccc1-2)[C@H]1[C@@H]2CNC[C@@H]21 [Compound 194] | 1000 to 10000 nM | 1000 to 10000 nM | > 10000 nM | > 10000 nM | > 10000 nM
c1cnn(-c2ccc3c(c2)COc2nc(N4C[C@H]5CNC[C@H]5C4)ccc2-3)c1 [Compound 185] | > 10000 nM | > 10000 nM | > 10000 nM | 1000 to 10000 nM | > 10000 nM
CCN(c1ccc2c(n1)OCc1cc(-n3cccn3)ccc1-2)C1CC(C)(C)NC(C)(C)C1 [Compound 189] | > 10000 nM | 1000 to 10000 nM | > 10000 nM | 1000 to 10000 nM | > 10000 nM
CN(c1cnc2c(n1)OCc1cc(-c3cn[nH]c3)ccc1-2)[C@@H]1C[C@H]2CC[C@@H](C1)N2 [Compound 144, (exo)-N-methyl-N-[8-(1H-pyrazol-4-yl)-6H-isochromeno[3,4-b]pyrazin-3-yl]-8-azabicyclo[3.2.1]octan-3-amine] | 100 to 1000 nM | 100 to 1000 nM | 100 to 1000 nM | > 10000 nM | 100 to 1000 nM
c1cc2c(cc1-c1cn[nH]c1)COc1nc(N[C@@H]3C[C@H]4CC[C@@H](C3)N4)cnc1-2 [Compound 143, (exo)-N-[8-(1H-pyrazol-4-yl)-6H-isochromeno[3,4-b]pyrazin-3-yl]-8-azabicyclo[3.2.1]octan-3-amine] | 100 to 1000 nM | 100 to 1000 nM | 100 to 1000 nM | 100 to 1000 nM | 100 to 1000 nM
CC1(C)CC(Oc2ccc3c(n2)OCc2cc(-n4cccn4)ccc2-3)CC(C)(C)N1 [Compound 171] | 1000 to 10000 nM | 1000 to 10000 nM | 1000 to 10000 nM | 100 to 1000 nM | 1000 to 10000 nM
CN(c1ccc2c(n1)OCc1cc(-c3cnn(C)c(=O)c3)ccc1-2)[C@@H]1C[C@H]2CC[C@@H](C1)N2 [Compound 160] | < 100 nM | < 100 nM | < 100 nM | < 100 nM | < 100 nM
c1cnn(-c2ccc3c(c2)COc2nc(O[C@@H]4C[C@H]5CC[C@@H](C4)N5)ccc2-3)c1 [Compound 188] | 100 to 1000 nM | 100 to 1000 nM | 1000 to 10000 nM | 100 to 1000 nM | 100 to 1000 nM
c1cnn(-c2ccc3c(c2)COc2nc(N4CC5(CCNCC5)C4)ccc2-3)c1 [Compound 167] | > 10000 nM | > 10000 nM | > 10000 nM | > 10000 nM | > 10000 nM
CN(c1ccc2c(n1)OCc1cc(-n3cccn3)ccc1-2)[C@@H]1C[C@H]2CC[C@@H](C1)N2 [Compound 149, (exo)-N-methyl-N-[8-(pyrazol-1-yl)-6H-isochromeno[3,4-b]pyridin-3-yl]-8-azabicyclo[3.2.1]octan-3-amine] | 100 to 1000 nM | < 100 nM | 100 to 1000 nM | 100 to 1000 nM | 100 to 1000 nM
[2H]C([2H])([2H])N(c1ccc2c(n1)OCc1cc(-n3cccn3)ccc1-2)[C@@H]1C[C@H]2CC[C@@H](C1)N2 [Compound 201] | 100 to 1000 nM | 100 to 1000 nM | 100 to 1000 nM | < 100 nM | 100 to 1000 nM
CN(c1ccc2c(n1)OCc1cc(-n3ccnn3)ccc1-2)[C@@H]1C[C@H]2CC[C@@H](C1)N2 [Compound 152] | 100 to 1000 nM | < 100 nM | 100 to 1000 nM | < 100 nM | 100 to 1000 nM
